The source of these data is US11712434B2, “Compound having anti-cancer effect, and preparation method therefor and use thereof” (3D MEDICINES (BEIJING) CO., LTD., priority 2016, dated 2023).

The subject of one series is NCI-H1648. Nature of the series: Cell proliferation assay (Alamar Blue). Conditions: Homo sapiens, 144 h; NCI-H1648 tumor cell line; 6 days culture. It is filed as cell-based. As for the experimental part: (§1) 1. Instruments and Materials • Thermo 311 CO2 incubator; Haier biosafety cabinet; Molecular Devices microplate reader; Xiangyi brand L530 desktop low speed centrifuge; Olympus IX51 inverted fluorescence microscope, DMEM, RPMI 1640, MEM, DMEM/F12 1:1 medium, Fetal bovine serum, 0.25% trypsin solution, phosphate buffer (Thermo Fisher Shanghai Co., Ltd.); sigma dimethyl sulfoxide (DMSO), resazurin; 54 commercial tumor cell lines (including 26 liver cancer cell lines). Experimental drugs: compounds 1-12 and active drug Linifanib; chemotherapeutic drug Doxorubicin (HY-15142; Shanghai Qianyuan Biomedical Technology Co., Ltd.).
(§2) 2. Experimental Methods • 2.1 Cultivation of Different Cell Lines • 54 cell lines were cultured in a culture medium containing fetal bovine serum and placed in a 5% CO2 incubator at 37° C. for incubation. The cells were all grown in an adherent state, and the growth was observed under an inverted microscope, and subculture was performed when the cell confluence rate reached 80%-90%. The proportion and quantity of passage were determined by experimental needs. The ratio of subculture of this cell line was generally 1:2^˜1:3. • 2.2 Inhibition Effect on the Proliferation of Different Tumor Cell Lines • Cell test: 54 cell lines in logarithmic growth phase were inoculated in 96-well culture plates at 500^˜1×10^4/well (the optimal seeding density of each cell line was determined in pre-experiment), After incubating at 37° C. for 4 h in a 5% CO2 humidification incubator, added 10 μL of compounds 1-12 or Linifanib to each well, and tested 9 drug concentration gradients for each compound (diluted from the highest concentration of the test by 3.16 times). The solubility of each compound was different at a starting concentration of 100 or 30 μM, respectively. The QC reference compound Doxorubicin was added simultaneously to each cell line test, and the final drug concentrations were 10, 3.16, 1, 0.31, 0.1, 0.03, 0.01, 0.003, and 0.001 μM, respectively. In addition, a positive control group (100% inhibition) and a negative control group (0% inhibition) were set at the same time. The drug group was repeated for 2 wells per concentration, and the positive control group and the negative control group were repeated for 6 wells. After the culture was continued for 6 days in the incubator, AlamarBlue test operation was followed; • AlamarBlue test procedure: Incubated with 10 μL of AlamarBlue reagent per well for 1-4 h, shook for 1-2 min, MD microplate reader EX: 560 nm, EM: 590 nm wavelength to measure fluorescence, recorded the results, calculated the cell inhibition rate of the compound of the invention. Cell inhibition rate (%)=(A0% inhibition−A administration)/(A0% inhibition−A100% inhibition)×100%, and then using the method of nonlinear regression using GraphPad Prism 5.0 or MATILAB software (usually using four parameters) to graph and obtain a drug dose response curve to obtain an IC50 value of the compound of the present invention acting on a cancer cell line.

A further series deals with NCI-H1703. Nature of the series: Cell proliferation assay (Alamar Blue). It is filed as cell-based. Particulars: Homo sapiens, 144 h; NCI-H1703 (lung cancer cells); 6 days culture. The procedure:
as §1, §2

The subject of a further series is NCI-H2170. Nature of the series: Cell proliferation assay (Alamar Blue). It is filed as cell-based. Conditions: Homo sapiens, 144 h; NCI-H2170 tumor cell line; 6 days culture. As for the experimental part: as §1, §2
A further series relates to NCI-H526. Nature of the series: Cell proliferation assay (Alamar Blue). Conditions: Homo sapiens, 144 h; NCI-H526 tumor cell line; 6 days culture. It is filed as cell-based. The procedure: as §1, §2
For another series, the system named is NCI-H661. Description: Cell proliferation assay (Alamar Blue). Particulars: Homo sapiens, 144 h; NCI-H661 tumor cell line; 6 days culture. It is filed as cell-based. As for the experimental part: as §1, §2
In the next series the test system is NCI-H716. Description: Cell proliferation assay (Alamar Blue). It is filed as cell-based. Particulars: Homo sapiens, 144 h; NCI-H716 tumor cell line; 6 days culture. As for the experimental part:
as §1, §2

In another series the test system is liver cancer. Conditions: liver cancer patients, phase III; cited from earlier work.

Take `Cc1ccc(F)c(NC(=O)Nc2ccc(-c3cccc4[nH]nc(N)c34)cc2)c1` [Linifanib, reference compound]: the 50% inhibitory concentration (IC50) in the series with NCI-H1648 is 7.17 µM; with NCI-H1703, 0.02 µM; in the series on NCI-H2170 it was 4 µM; in the series with NCI-H526, 7.8 µM; with NCI-H661, 13.3 µM; in the series with NCI-H716, 4.1 µM. For the same compound, in the series with liver cancer, the “toxicity and side effects” value is on record as “greater than Sorafenib”.

`CNC(=O)c1cc(Oc2ccc(NC(=O)Nc3ccc(Cl)c(C(F)(F)F)c3)cc2)ccn1` [Sorafenib]: in the series on liver cancer, the “ORR (overall response rate)” value is 6.9% and the “TTP (time to progression)” value is 4.0 months.
